Measurements: the supplement of paper PMC10307832

Columns and labels:
Test in all cases: relative viability (nuclei count vs DMSO), 5 days (fraction); higher = more cells survive
201T = system: 201T
In short: (§1)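 Relative viability is defined as nuclei in treated wells over nuclei in vehicle wells. Duplicate plates were run and medians reported. Lung cancer cell lines in 1536-well plates were dosed by pin tool one day after seeding, with one drug or with a fixed anchor-drug dose plus five library-drug doses (not always all listed) in √10 steps, and nuclei were counted after 5 days.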

COR-L 105 = system: COR-L 105
In short: as §1

ChaGo-K-1 = system: ChaGo-K-1
In short: as §1

EKVX = system: EKVX
In short: as §1

H3255 = system: H3255
In short: as §1

HARA = system: HARA
In short: as §1

HCC-827 = system: HCC-827
In short: as §1

HOP-62 = system: HOP-62
In short: as §1

LCLC-103H = system: LCLC-103H
In short: as §1

LOU-NH91 = system: LOU-NH91
In short: as §1

NCI-H1975 = system: NCI-H1975
In short: as §1

NCI-H2126 = system: NCI-H2126
In short: as §1

NCI-H2228 = system: NCI-H2228
In short: as §1

NCI-H23 = system: NCI-H23
In short: as §1

NCI-H2405 = system: NCI-H2405
In short: as §1

NCI-H3122 = system: NCI-H3122
In short: as §1

NCI-H596 = system: NCI-H596
In short: as §1

NCI-H650 = system: NCI-H650
In short: as §1

NCI-H661 = system: NCI-H661
In short: as §1

NCI-H727 = system: NCI-H727
In short: as §1

PC-3 [JPC-3] = system: PC-3 [JPC-3]
In short: as §1

SK-LU-1 = system: SK-LU-1
In short: as §1

SW 900 = system: SW 900
In short: as §1

CCNC(=O)c1noc(-c2cc(C(C)C)c(O)cc2O)c1-c1ccc(CN2CCOCC2)cc1 [Luminespib] + N=C(N)NC(=N)NCCc1ccccc1 [Phenformin] (partner 250 µM)
relative viability (201T; first compound 0.002 µM): 0.396
relative viability (201T; first compound 0.006325 µM): 0.465
relative viability (201T; first compound 0.02 µM): 0.477
relative viability (201T; first compound 0.06325 µM): 0.373
relative viability (201T; first compound 0.2 µM): 0.24
relative viability (COR-L 105; first compound 0.002 µM): 0.474
relative viability (COR-L 105; first compound 0.006325 µM): 0.402
relative viability (COR-L 105; first compound 0.02 µM): 0.337
relative viability (COR-L 105; first compound 0.06325 µM): 0.154
relative viability (COR-L 105; first compound 0.2 µM): 0.19
relative viability (ChaGo-K-1; first compound 0.002 µM): 0.504
relative viability (ChaGo-K-1; first compound 0.006325 µM): 0.456
relative viability (ChaGo-K-1; first compound 0.02 µM): 0.467
relative viability (ChaGo-K-1; first compound 0.06325 µM): 0.303
relative viability (ChaGo-K-1; first compound 0.2 µM): 0.152
relative viability (EKVX; first compound 0.002 µM): 0.236
relative viability (EKVX; first compound 0.006325 µM): 0.209
relative viability (EKVX; first compound 0.06325 µM): 0.223
relative viability (EKVX; first compound 0.2 µM): 0.104
relative viability (H3255; first compound 0.002 µM): 0.328
relative viability (H3255; first compound 0.006325 µM): 0.347
relative viability (H3255; first compound 0.06325 µM): 0.319
relative viability (H3255; first compound 0.2 µM): 0.187
relative viability (HARA; first compound 0.002 µM): 0.484
relative viability (HARA; first compound 0.006325 µM): 0.422
relative viability (HARA; first compound 0.02 µM): 0.485
relative viability (HARA; first compound 0.06325 µM): 0.245
relative viability (HARA; first compound 0.2 µM): 0.0594
relative viability (HCC-827; first compound 0.002 µM): 0.385
relative viability (HCC-827; first compound 0.006325 µM): 0.384
relative viability (HCC-827; first compound 0.02 µM): 0.369
relative viability (HCC-827; first compound 0.06325 µM): 0.281
relative viability (HCC-827; first compound 0.2 µM): 0.141
relative viability (HOP-62; first compound 0.002 µM): 0.674
relative viability (HOP-62; first compound 0.006325 µM): 0.721
relative viability (HOP-62; first compound 0.02 µM): 0.696
relative viability (HOP-62; first compound 0.06325 µM): 0.364
relative viability (HOP-62; first compound 0.2 µM): 0.165
relative viability (LCLC-103H; first compound 0.002 µM): 0.322
relative viability (LCLC-103H; first compound 0.006325 µM): 0.361
relative viability (LCLC-103H; first compound 0.02 µM): 0.351
relative viability (LCLC-103H; first compound 0.06325 µM): 0.353
relative viability (LCLC-103H; first compound 0.2 µM): 0.188
relative viability (LOU-NH91; first compound 0.002 µM): 0.741
relative viability (LOU-NH91; first compound 0.006325 µM): 0.716
relative viability (LOU-NH91; first compound 0.02 µM): 0.525
relative viability (LOU-NH91; first compound 0.06325 µM): 0.287
relative viability (LOU-NH91; first compound 0.2 µM): 0.322
relative viability (NCI-H1975; first compound 0.002 µM): 0.401
relative viability (NCI-H1975; first compound 0.006325 µM): 0.37
relative viability (NCI-H1975; first compound 0.02 µM): 0.169
relative viability (NCI-H1975; first compound 0.06325 µM): 0.118
relative viability (NCI-H1975; first compound 0.2 µM): 0.118
relative viability (NCI-H2126; first compound 0.002 µM): 0.523
relative viability (NCI-H2126; first compound 0.006325 µM): 0.506
relative viability (NCI-H2126; first compound 0.02 µM): 0.497
relative viability (NCI-H2126; first compound 0.06325 µM): 0.279
relative viability (NCI-H2126; first compound 0.2 µM): 0.307
relative viability (NCI-H2228; first compound 0.002 µM): 0.314
relative viability (NCI-H2228; first compound 0.006325 µM): 0.288
relative viability (NCI-H2228; first compound 0.02 µM): 0.115
relative viability (NCI-H2228; first compound 0.06325 µM): 0.102
relative viability (NCI-H2228; first compound 0.2 µM): 0.0912
relative viability (NCI-H23; first compound 0.002 µM): 0.821
relative viability (NCI-H23; first compound 0.006325 µM): 0.727
relative viability (NCI-H23; first compound 0.02 µM): 0.611
relative viability (NCI-H23; first compound 0.06325 µM): 0.359
relative viability (NCI-H23; first compound 0.2 µM): 0.16
relative viability (NCI-H2405; first compound 0.002 µM): 0.417
relative viability (NCI-H2405; first compound 0.006325 µM): 0.314
relative viability (NCI-H2405; first compound 0.02 µM): 0.514
relative viability (NCI-H2405; first compound 0.06325 µM): 0.193
relative viability (NCI-H2405; first compound 0.2 µM): 0.196
relative viability (NCI-H3122; first compound 0.002 µM): 0.427
relative viability (NCI-H3122; first compound 0.006325 µM): 0.32
relative viability (NCI-H3122; first compound 0.02 µM): 0.132
relative viability (NCI-H3122; first compound 0.06325 µM): 0.0959
relative viability (NCI-H3122; first compound 0.2 µM): 0.0895
relative viability (NCI-H596; first compound 0.002 µM): 0.648
relative viability (NCI-H596; first compound 0.006325 µM): 0.621
relative viability (NCI-H596; first compound 0.02 µM): 0.588
relative viability (NCI-H596; first compound 0.06325 µM): 0.61
relative viability (NCI-H596; first compound 0.2 µM): 0.58
relative viability (NCI-H650; first compound 0.002 µM): 0.437
relative viability (NCI-H650; first compound 0.006325 µM): 0.453
relative viability (NCI-H650; first compound 0.02 µM): 0.391
relative viability (NCI-H650; first compound 0.06325 µM): 0.213
relative viability (NCI-H650; first compound 0.2 µM): 0.121
relative viability (NCI-H661; first compound 0.002 µM): 0.262
relative viability (NCI-H661; first compound 0.006325 µM): 0.279
relative viability (NCI-H661; first compound 0.02 µM): 0.27
relative viability (NCI-H661; first compound 0.06325 µM): 0.241
relative viability (NCI-H661; first compound 0.2 µM): 0.191
relative viability (NCI-H727; first compound 0.002 µM): 0.564
relative viability (NCI-H727; first compound 0.006325 µM): 0.398
relative viability (NCI-H727; first compound 0.02 µM): 0.361
relative viability (NCI-H727; first compound 0.06325 µM): 0.318
relative viability (NCI-H727; first compound 0.2 µM): 0.175
relative viability (PC-3 [JPC-3]; first compound 0.002 µM): 0.463
relative viability (PC-3 [JPC-3]; first compound 0.006325 µM): 0.457
relative viability (PC-3 [JPC-3]; first compound 0.02 µM): 0.462
relative viability (PC-3 [JPC-3]; first compound 0.06325 µM): 0.472
relative viability (PC-3 [JPC-3]; first compound 0.2 µM): 0.242
relative viability (SK-LU-1; first compound 0.002 µM): 0.53
relative viability (SK-LU-1; first compound 0.006325 µM): 0.411
relative viability (SK-LU-1; first compound 0.02 µM): 0.192
relative viability (SK-LU-1; first compound 0.06325 µM): 0.0958
relative viability (SK-LU-1; first compound 0.2 µM): 0.0878
relative viability (SW 900; first compound 0.002 µM): 0.625
relative viability (SW 900; first compound 0.006325 µM): 0.489
relative viability (SW 900; first compound 0.02 µM): 0.344
relative viability (SW 900; first compound 0.06325 µM): 0.0721
relative viability (SW 900; first compound 0.2 µM): 0.124
